Results taken from publication PMC4460250, “Systems Pharmacology Dissecting Holistic Medicine for Treatment of Complex Diseases: An Example Using Cardiocerebrovascular Diseases Treated by TCM” (Evidence-based Complementary and Alternative Medicine : eCAM, 2015).

What was measured:
[1] = in vivo; cited from earlier work
[2] = in vivo

SMILES	HIA(Human Intestinal Absorption) [1]	Class(High: HIA value ≥0.7; Low: HIA value < 0.7) [2]
CCN(CCCCOC(=O)c1ccc(OC)c(OC)c1)[C@H](C)Cc1ccc(OC)cc1 [Mebeverine(R)]	0.9	High (key: High: HIA value ≥0.7; Low: HIA value < 0.7)
CC[C@H](c1ccccc1)c1c(O)c2ccccc2oc1=O [Phenprocoumon(R)]	0.95	High (key: High: HIA value ≥0.7; Low: HIA value < 0.7)
CCOC(=O)C1=C(C)NC(C)=C(C(=O)OC)[C@H]1c1cccc([N+](=O)[O-])c1 [Nitrendipine(R)]	0.88	High (key: High: HIA value ≥0.7; Low: HIA value < 0.7)
CCN(CCO)CCC[C@@H](C)Nc1ccnc2cc(Cl)ccc12 [Hydroxychloroquine(R)]	0.9	High (key: High: HIA value ≥0.7; Low: HIA value < 0.7)
CC(C)NC[C@H](O)c1cc(O)cc(O)c1 [Metaproterenol(R)]	0.43	Low (key: High: HIA value ≥0.7; Low: HIA value < 0.7)
CN1[C@H](CSCC(F)(F)F)Nc2cc(Cl)c(S(N)(=O)=O)cc2S1(=O)=O [Polythiazide(R)]	1	High (key: High: HIA value ≥0.7; Low: HIA value < 0.7)
COc1cccc(C(=O)CCN[C@@H](C)[C@H](O)c2ccccc2)c1 [Oxyfedrine]	0.84	High (key: High: HIA value ≥0.7; Low: HIA value < 0.7)
N[C@@H](CO)C(=O)NNCc1ccc(O)c(O)c1O [Benserazide(S)]	0.7	High (key: High: HIA value ≥0.7; Low: HIA value < 0.7)
COC(=O)C1=C(C)NC(C)=C(C(=O)OCC(C)C)[C@H]1c1ccccc1[N+](=O)[O-] [Nisoldipine(S)]	0.9	High (key: High: HIA value ≥0.7; Low: HIA value < 0.7)
NCC1(CC(=O)O)CCCCC1 [Gabapentin]	0.59	Low (key: High: HIA value ≥0.7; Low: HIA value < 0.7)
CCN(CCO)CCC[C@H](C)Nc1ccnc2cc(Cl)ccc12 [Hydroxychloroquine(S)]	0.9	High (key: High: HIA value ≥0.7; Low: HIA value < 0.7)
CN1C(=O)CCC1c1cccnc1 (stereo in doubt) [Cotinine(R)]	0.97	High (key: High: HIA value ≥0.7; Low: HIA value < 0.7)
CC(C)(C)NC[C@H](O)COc1nsnc1N1CCOCC1 [Timolol(S)]	0.95	High (key: High: HIA value ≥0.7; Low: HIA value < 0.7)
COc1ccccc1OCCNC[C@@H](O)COc1cccc2[nH]c3ccccc3c12 [Carvedilol(R)]	0.8	High (key: High: HIA value ≥0.7; Low: HIA value < 0.7)
CC(C)(C)NC[C@@H](O)COc1cccc2c1CCC(=O)N2 [Carteolol(R)]	0.95	High (key: High: HIA value ≥0.7; Low: HIA value < 0.7)
CCN(CC)CC[C@]1(c2ccccc2)CCC(=O)NC1=O [Phenglutarimide(S)]	1	High (key: High: HIA value ≥0.7; Low: HIA value < 0.7)
COc1ccccc1OCCNC[C@H](O)c1ccc(C)c(S(N)(=O)=O)c1 [Amosulalol(R)]	1	High (key: High: HIA value ≥0.7; Low: HIA value < 0.7)
O=C(c1ccccc1)c1ccc2n1CC[C@H]2C(=O)O [Ketorolac(R)]	0.95	High (key: High: HIA value ≥0.7; Low: HIA value < 0.7)
C[C@@H](c1cc2ccccc2s1)N(O)C(N)=O [Zileuton(S)]	1	High (key: High: HIA value ≥0.7; Low: HIA value < 0.7)
COc1cc2c(cc1OC)CN(C(=O)[C@H](C)N[C@@H](CCc1ccccc1)C(=O)O)[C@H](C(=O)O)C2 [Moexipril_diacid]	0.05	Low (key: High: HIA value ≥0.7; Low: HIA value < 0.7)
CCC(C)n1ncn(-c2ccc(N3CCN(c4ccc(OCC5COC(Cn6cncn6)(c6ccc(Cl)cc6Cl)O5)cc4)CC3)cc2)c1=O [Itraconazole(R)]	0.8	High (key: High: HIA value ≥0.7; Low: HIA value < 0.7)

SMILES	HIA(Human Intestinal Absorption) [1]	Class(High: HIA value ≥0.7; Low: HIA value < 0.7) [2]
Cc1cc(=O)n(-c2ccccc2)n1C [Antipyrine]	0.97	High (key: High: HIA value ≥0.7; Low: HIA value < 0.7)
COc1cc2nc(N3CCN(C(=O)[C@H]4CCCO4)CC3)nc(N)c2cc1OC [Terazosin(R)]	0.91	High (key: High: HIA value ≥0.7; Low: HIA value < 0.7)
Cc1cc(C)nc(NS(=O)(=O)c2ccc(N)cc2)n1 [Sulfamethazine]	0.95	High (key: High: HIA value ≥0.7; Low: HIA value < 0.7)
N=C(N)NC[C@H]1COc2ccccc2O1 [Guanoxan(S)]	0.5	Low (key: High: HIA value ≥0.7; Low: HIA value < 0.7)
CN1C(=O)CC[C@H]1c1cccnc1 [Cotinine(S)]	0.97	High (key: High: HIA value ≥0.7; Low: HIA value < 0.7)
CCCC(=O)Nc1ccc(OC[C@H](O)CNC(C)C)c(C(C)=O)c1 [Acebutolol(R)]	0.85	High (key: High: HIA value ≥0.7; Low: HIA value < 0.7)
COP(=O)(OC)O[C@@H](c1ccc(Cl)cc1)P(=O)(OC)OC [Mifobate(R)]	0.82	High (key: High: HIA value ≥0.7; Low: HIA value < 0.7)
C[C@H](CN(C)C)CN1c2ccccc2Sc2ccccc21 [Trimeprazine(R)]	0.8	High (key: High: HIA value ≥0.7; Low: HIA value < 0.7)
CCOc1cc(CC(=O)N[C@@H](CC(C)C)c2ccccc2N2CCCCC2)ccc1C(=O)O [Repaglinide(S)]	1	High (key: High: HIA value ≥0.7; Low: HIA value < 0.7)
CCN1CCCC1CNC(=O)c1c(OC)ccc(Br)c1OC (stereo in doubt) [Remoxipride(R)]	1	High (key: High: HIA value ≥0.7; Low: HIA value < 0.7)
OC[C@H](O)COc1ccc(Cl)cc1 [Chlorphenesin(S)]	1	High (key: High: HIA value ≥0.7; Low: HIA value < 0.7)
C[C@H]1O[C@H](O[C@H]2[C@H](O)[C@@H](O)[C@@H](O[C@H]3[C@H](O)[C@@H](O)C(O)O[C@@H]3CO)O[C@@H]2CO)[C@H](O)[C@@H](O)[C@@H]1N[C@H]1C=C(CO)[C@@H](O)[C@H](O)[C@H]1O (stereo partly shown) [Acarbose]	0.02	Low (key: High: HIA value ≥0.7; Low: HIA value < 0.7)
CN1CCN(C(=O)O[C@H]2c3nccnc3C(=O)N2c2ccc(Cl)cn2)CC1 [Zopiclone(S)]	0.98	High (key: High: HIA value ≥0.7; Low: HIA value < 0.7)
CC(C)(C)NCC(O)COc1nsnc1N1CCOCC1 (stereo in doubt) [Timolol(R)]	0.95	High (key: High: HIA value ≥0.7; Low: HIA value < 0.7)
CCN[C@H](C)Cc1cccc(C(F)(F)F)c1 [Fenfluramine(R)]	0.95	High (key: High: HIA value ≥0.7; Low: HIA value < 0.7)
C[C@H](CN1CCOCC1)C(C(=O)N1CCCC1)(c1ccccc1)c1ccccc1 [Dextromoramide]	1	High (key: High: HIA value ≥0.7; Low: HIA value < 0.7)
O=[N+]([O-])O[C@H]1CO[C@H]2[C@@H]1OC[C@H]2O [Isosorbide-2-mononitrate]	0.9	High (key: High: HIA value ≥0.7; Low: HIA value < 0.7)
COc1cc2nc(N3CCN(C(=O)[C@@H]4CCCO4)CC3)nc(N)c2cc1OC [Terazosin(S)]	0.91	High (key: High: HIA value ≥0.7; Low: HIA value < 0.7)
COCCc1ccc(OC[C@@H](O)CNC(C)C)cc1 [Metoprolol(S)]	0.96	High (key: High: HIA value ≥0.7; Low: HIA value < 0.7)
COP(=O)(OC)O[C@H](c1ccc(Cl)cc1)P(=O)(OC)OC [Mifobate(S)]	0.82	High (key: High: HIA value ≥0.7; Low: HIA value < 0.7)
